This passage reports IC50 results from PubChem BioAssay AID2747 (The Scripps Research Institute Molecular Screening Center, 2010).

Active and inactive are the calls of the source. How the calls were made is not given here.

Sequence of Luciferin 4-monooxygenase (Photinus pyralis) (P08659 whole entry, looked up): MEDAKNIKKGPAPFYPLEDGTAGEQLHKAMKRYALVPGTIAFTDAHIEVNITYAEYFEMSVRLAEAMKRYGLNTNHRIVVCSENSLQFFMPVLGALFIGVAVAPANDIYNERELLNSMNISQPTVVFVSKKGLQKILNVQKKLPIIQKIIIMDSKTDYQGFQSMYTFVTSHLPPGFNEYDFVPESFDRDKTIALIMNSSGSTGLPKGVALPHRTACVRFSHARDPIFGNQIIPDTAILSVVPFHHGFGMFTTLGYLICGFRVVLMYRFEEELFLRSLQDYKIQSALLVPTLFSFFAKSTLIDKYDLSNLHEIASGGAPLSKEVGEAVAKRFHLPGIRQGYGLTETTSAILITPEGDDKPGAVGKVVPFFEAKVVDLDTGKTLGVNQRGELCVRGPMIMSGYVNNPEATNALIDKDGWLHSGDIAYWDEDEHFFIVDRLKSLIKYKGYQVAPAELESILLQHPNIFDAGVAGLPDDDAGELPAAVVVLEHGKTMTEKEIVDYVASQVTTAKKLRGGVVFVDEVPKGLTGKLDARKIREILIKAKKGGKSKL

The experiment concerns the target Luciferin 4-monooxygenase (Photinus pyralis) (UniProt P08659). Description: firefly luciferase inhibitors, late-stage follow-up, artefact control for HSP90 inhibitor project, biochemical, luminescence, dose response (AID 2747). The following applies: purified firefly luciferase, counterscreen. On the technique in general: Counterscreens check selectivity or assay interference.
The term IC50 denotes the concentration at which inhibition is half-maximal. On to `Cc1c(-c2nc(-c3ccc(C(F)(F)F)cc3)no2)n(C)oc1=O`, for which the IC50 is > 60 µM (inactive).

`CCOC(=O)C1=C(c2ccc(OC)cc2)C(=O)c2ccccc2C1=O`: the IC50 was > 60 µM (inactive). Turning to `CCc1ccc(OCc2ccc(C(=O)OC)o2)cc1`, the IC50 was > 60 µM (inactive). `COC(=O)c1ccccc1OCCCOc1ccc(C)cc1OC`: the IC50 was > 60 µM (inactive). The same measure for `COc1cc(C=NNc2ccc(Cl)c(C(=O)O)c2)ccc1OC(=O)c1ccc(F)cc1`: > 60 µM (inactive); for `CCOC(=O)c1csc(NC(=O)c2cc3ccccc3o2)n1`: > 60 µM (inactive); for `Cc1cc(NO)nc(-c2ccc(Br)cc2)n1`: > 60 µM (inactive).

As for `CC(=O)Nc1ccccc1OCC(=O)c1cc(C)n(Cc2cccs2)c1C`, the IC50 is > 60 µM (inactive). For `Cc1c(-c2nc(-c3ccc(C(C)(C)C)cc3)no2)n(C)oc1=O`, the IC50 is > 60 µM (inactive). As to `COc1ccccc1NC(=O)c1coc(=O)c(Br)c1`, the IC50 was > 60 µM (inactive).
